We go through eight molecules from patent US11034650B2, “Compounds useful for treating a Mannheimia haemolytica or Histophilus somni infection” (Intervet Inc., priority 2016, dated 2021).

Structures are written as SMILES. In brackets after ≈: the same amount, converted by molar mass.

What all share (type): cell-based
The subject of test [1] is Mannheimia haemolytica MH 6374 (ATCC 33396, reference strain). As to the kind of experiment: MIC, broth-microdilution (CLSI VET01-A4), strain MH 6374. Conditions: Mannheimia haemolytica strain MH 6374, broth-microdilution; unit assumed. In outline:
(§1)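 MIC is the lowest compound concentration showing no visible growth by eye, read from doubling-dilution microdilution trays. Method followed CLSI VET01-A4, with interpretation under CLSI VET01-S3.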

Test [2] relates to Pasteurella multocida PM 10775 (080130003051, BRD field isolate). Briefly: MIC, broth-microdilution (CLSI VET01-A4), strain PM 10775. To be noted: Pasteurella multocida strain PM 10775, broth-microdilution; unit assumed. In outline:
as §1

Test [3] has as its system Pasteurella multocida PM 12080 (IV102277-0093, BRD field isolate). As to the kind of experiment: MIC, broth-microdilution (CLSI VET01-A4), strain PM 12080. To be noted: Pasteurella multocida strain PM 12080, broth-microdilution; unit assumed. In a few lines: as §1
Test [4] has as its system Mannheimia haemolytica MH 13065 (XB0446-6003.9, BRD field isolate). As to the kind of experiment: MIC, broth-microdilution (CLSI VET01-A4), strain MH 13065. To be noted: Mannheimia haemolytica strain MH 13065, broth-microdilution; unit assumed. In a few lines:
as §1

Test [5] has as its system Pasteurella multocida PM 6391 (ATCC 43137, reference strain). As to the kind of experiment: MIC, broth-microdilution (CLSI VET01-A4), strain PM 6391. To be noted: Pasteurella multocida strain PM 6391, broth-microdilution; unit assumed. In a few lines:
as §1

Test [6] concerns Mannheimia haemolytica MH 13093 (XB0472-6014.1, BRD field isolate). Briefly: MIC, broth-microdilution (CLSI VET01-A4), strain MH 13093. To be noted: Mannheimia haemolytica strain MH 13093, broth-microdilution; unit assumed. In a few lines:
as §1

In test [7] the test system is Mannheimia haemolytica MH 10720 (154, BRD field isolate). As to the kind of experiment: MIC, broth-microdilution (CLSI VET01-A4), strain MH 10720. To be noted: Mannheimia haemolytica strain MH 10720, broth-microdilution; unit assumed. In a few lines:
as §1

The subject of test [8] is Mannheimia haemolytica MH 6357 (M7/2, reference strain, cattle infection strain). As to the kind of experiment: MIC, broth-microdilution (CLSI VET01-A4), strain MH 6357. Conditions: Mannheimia haemolytica strain MH 6357, broth-microdilution; unit assumed. In a few lines:
as §1

For test [9], the system named is Mannheimia haemolytica MH 12587 (1071, BRD field isolate, macrolide-resistance: erm+, E+). Briefly: MIC, broth-microdilution (CLSI VET01-A4), strain MH 12587. To be noted: Mannheimia haemolytica strain MH 12587, broth-microdilution; unit assumed. In outline:
as §1

Test [10] concerns Pasteurella multocida PM 6267 (P 2225 (L386), reference strain, mouse infection strain). Briefly: MIC, broth-microdilution (CLSI VET01-A4), strain PM 6267. Conditions: Pasteurella multocida strain PM 6267, broth-microdilution; unit assumed. In a few lines:
as §1

With `CSC(C)(C)[C@H](NC(=O)c1ccc(C#Cc2ccc(CNCc3ccccn3)s2)cc1)C(=O)NO` [Compound 307], the MIC MH 6374 in [1] was 0.8 µg/mL (≈ 1.57 µM). In [2], the MIC PM 10775 is at most 0.1 µg/mL. The MIC PM 12080 in [3] was found to be 0.4 µg/mL (≈ 0.786 µM). In test [4], this molecule yielded an MIC MH 13065 of 0.8 µg/mL (≈ 1.57 µM). This molecule also had an MIC PM 6391 in test [5] of 0.4 µg/mL (≈ 0.786 µM). In test [6], the MIC MH 13093 is 1.6 µg/mL (≈ 3.15 µM). The molecule also came in with an MIC MH 10720 in test [7] of at most 0.1 µg/mL. The same molecule showed an MIC MH 6357 in test [8] of 0.8 µg/mL (≈ 1.57 µM). The MIC MH 12587 in test [9] was determined as 1.6 µg/mL (≈ 3.15 µM). In test [10], this molecule had an MIC PM 6267 of 0.8 µg/mL (≈ 1.57 µM).

With `CSC(C)(C)[C@H](NC(=O)c1ccc(C#Cc2ccc(CNCc3ccco3)s2)cc1)C(=O)NO` [Compound 308], the MIC MH 6374 in [1] was 0.8 µg/mL (≈ 1.61 µM). The molecule also showed an MIC PM 10775 in test [2] of at most 0.1 µg/mL. The same molecule came in with an MIC PM 12080 in test [3] of 0.4 µg/mL (≈ 0.804 µM). The MIC MH 13065 in test [4] was 0.8 µg/mL (≈ 1.61 µM). In test [5], this molecule registered an MIC PM 6391 of 0.4 µg/mL (≈ 0.804 µM). This molecule came in with an MIC MH 13093 in test [6] of 1.6 µg/mL (≈ 3.22 µM). For the same molecule, the MIC MH 10720 in [7] is at most 0.1 µg/mL. This molecule also showed an MIC MH 6357 in [8] of 0.8 µg/mL (≈ 1.61 µM). Moreover, in test [9], the MIC MH 12587 worked out at 1.6 µg/mL (≈ 3.22 µM). This molecule yielded an MIC PM 6267 in [10] of 0.8 µg/mL (≈ 1.61 µM).

Take `CSC(C)(C)[C@H](NC(=O)c1ccc(C#Cc2ccc(CNCC(F)(F)F)s2)cc1)C(=O)NO` [Compound 309]: the MIC MH 6374 in [1] worked out at 0.8 µg/mL (≈ 1.6 µM). In addition, in test [2], the MIC PM 10775 was at most 0.1 µg/mL. The molecule also returned an MIC PM 12080 in test [3] of 0.4 µg/mL (≈ 0.801 µM). Moreover, the MIC MH 13065 in test [4] was 0.8 µg/mL (≈ 1.6 µM). The molecule further yielded an MIC PM 6391 in test [5] of 0.4 µg/mL (≈ 0.801 µM). Besides, the MIC MH 13093 in [6] was 1.6 µg/mL (≈ 3.2 µM). Also, the MIC MH 10720 in test [7] is at most 0.1 µg/mL. Moreover, the MIC MH 6357 in test [8] came to 0.8 µg/mL (≈ 1.6 µM). For the same molecule, the MIC MH 12587 in [9] was 1.6 µg/mL (≈ 3.2 µM). In addition, in [10], the MIC PM 6267 worked out at 1.6 µg/mL (≈ 3.2 µM).

Turning to `CSC(C)(C)[C@H](NC(=O)c1ccc(C#Cc2ccc(CNCc3ncc(C)o3)s2)cc1)C(=O)NO` [Compound 310], the MIC MH 6374 in test [1] is 0.8 µg/mL (≈ 1.56 µM). Further, the MIC PM 10775 in test [2] worked out at 0.4 µg/mL (≈ 0.78 µM). The molecule also had an MIC PM 12080 in [3] of 0.8 µg/mL (≈ 1.56 µM). Also, in [4], the MIC MH 13065 turned out to be 1.6 µg/mL (≈ 3.12 µM). In [5], this molecule displayed an MIC PM 6391 of 0.4 µg/mL (≈ 0.78 µM). Also, the MIC MH 13093 in [6] is 1.6 µg/mL (≈ 3.12 µM). Also, the MIC MH 10720 in test [7] is 0.4 µg/mL (≈ 0.78 µM). The same molecule returned an MIC MH 6357 in test [8] of 1.6 µg/mL (≈ 3.12 µM). For the same molecule, in test [9], the MIC MH 12587 was 3.1 µg/mL (≈ 6.05 µM). Moreover, the MIC PM 6267 in [10] was 1.6 µg/mL (≈ 3.12 µM).

Regarding `C=CCNCc1ccc(C#Cc2ccc(C(=O)N[C@H](C(=O)NO)C(C)(C)S(C)(=O)=O)cc2)s1` [Compound 312], in test [1], the MIC MH 6374 worked out at 0.4 µg/mL (≈ 0.817 µM). Also, the MIC PM 10775 in [2] is at most 0.1 µg/mL. In test [3], the MIC PM 12080 was at most 0.1 µg/mL. For the same molecule, the MIC MH 13065 in test [4] turned out to be 0.4 µg/mL (≈ 0.817 µM). This molecule had an MIC PM 6391 in test [5] of at most 0.1 µg/mL. In [6], the MIC MH 13093 was found to be 0.8 µg/mL (≈ 1.63 µM). The molecule also gave an MIC MH 10720 in [7] of at most 0.1 µg/mL. The same molecule showed an MIC MH 6357 in test [8] of 0.4 µg/mL (≈ 0.817 µM). Further, in test [9], the MIC MH 12587 is 0.8 µg/mL (≈ 1.63 µM). The molecule also had an MIC PM 6267 in test [10] of 0.4 µg/mL (≈ 0.817 µM).

In turn, `CC(C)([C@H](NC(=O)c1ccc(C#Cc2ccc(CN3CCOCC3)s2)cc1)C(=O)NO)S(C)(=O)=O` [Compound 314] displayed an MIC MH 6374 in [1] of 1.6 µg/mL (≈ 3.08 µM). The molecule further registered an MIC PM 10775 in [2] of at most 0.1 µg/mL. The molecule also yielded an MIC PM 12080 in [3] of at most 0.1 µg/mL. Moreover, in test [4], the MIC MH 13065 was 0.4 µg/mL (≈ 0.77 µM). Moreover, the MIC PM 6391 in [5] was at most 0.1 µg/mL. In test [6], this molecule had an MIC MH 13093 of 0.8 µg/mL (≈ 1.54 µM). Further, the MIC MH 10720 in test [7] was at most 0.1 µg/mL. The MIC MH 6357 in test [8] is 0.4 µg/mL (≈ 0.77 µM). In addition, the MIC MH 12587 in test [9] is 0.8 µg/mL (≈ 1.54 µM). The molecule also registered an MIC PM 6267 in test [10] of 0.4 µg/mL (≈ 0.77 µM).

For the molecule `CC(C)([C@H](NC(=O)c1ccc(C#Cc2ccc(CNCc3ccccc3)s2)cc1)C(=O)NO)S(C)(=O)=O` [Compound 315], the MIC MH 6374 in [1] is at most 0.1 µg/mL. The molecule also displayed an MIC PM 10775 in [2] of at most 0.1 µg/mL. This molecule also displayed an MIC PM 12080 in [3] of at most 0.1 µg/mL. Also, the MIC MH 13065 in [4] is at most 0.1 µg/mL. Moreover, in [5], the MIC PM 6391 is at most 0.1 µg/mL. The molecule also had an MIC MH 13093 in [6] of 0.4 µg/mL (≈ 0.741 µM). In addition, in test [7], the MIC MH 10720 was at most 0.1 µg/mL. The MIC MH 6357 in [8] was at most 0.1 µg/mL. In [9], this molecule came in with an MIC MH 12587 of 0.4 µg/mL (≈ 0.741 µM). In addition, the MIC PM 6267 in test [10] turned out to be 0.2 µg/mL (≈ 0.371 µM).

Turning to `COc1ccc(CNCc2ccc(C#Cc3ccc(C(=O)N[C@H](C(=O)NO)C(C)(C)S(C)(=O)=O)cc3)s2)cc1` [Compound 316], in [1], the MIC MH 6374 was 0.2 µg/mL (≈ 0.351 µM). The molecule also gave an MIC PM 10775 in test [2] of at most 0.1 µg/mL. Also, the MIC PM 12080 in test [3] was at most 0.1 µg/mL. For the same molecule, in [4], the MIC MH 13065 was 0.2 µg/mL (≈ 0.351 µM). This molecule also registered an MIC PM 6391 in test [5] of at most 0.1 µg/mL. The molecule also came in with an MIC MH 13093 in [6] of 0.4 µg/mL (≈ 0.702 µM). Further, in [7], the MIC MH 10720 is at most 0.1 µg/mL. The molecule further displayed an MIC MH 6357 in test [8] of at most 0.1 µg/mL. This molecule also had an MIC MH 12587 in test [9] of 0.8 µg/mL (≈ 1.4 µM). The same molecule showed an MIC PM 6267 in test [10] of 0.2 µg/mL (≈ 0.351 µM).
